# Earlier results, collected in US12324431B2, “Compositions and methods for scalable production and delivery of biologicals” (priority 2017, dated 2025).
# System: insects
# Conditions: potency similar to imidacloprid
substance,measurement,value
orally active insecticidal peptide-1 [OAIP-1],toxicity to insects,highly toxic
